The results in this text go back to article PMC2904801, “A Metazoan/Plant-like Capping Enzyme and Cap Modified Nucleotides in the Unicellular Eukaryote Trichomonas vaginalis” (PLoS Pathogens, 2010).

The target of the experiment is T1, TvCE (Trichomonas vaginalis, UniProt A2DUZ5).
T1 construct: gene TVAG_187730; full-length (561 residues, 69 kDa without tag), N-terminal His tag from pET200D, E. coli BL21, ~71 kDa monomer
T1 sequence (A2DUZ5 1-561): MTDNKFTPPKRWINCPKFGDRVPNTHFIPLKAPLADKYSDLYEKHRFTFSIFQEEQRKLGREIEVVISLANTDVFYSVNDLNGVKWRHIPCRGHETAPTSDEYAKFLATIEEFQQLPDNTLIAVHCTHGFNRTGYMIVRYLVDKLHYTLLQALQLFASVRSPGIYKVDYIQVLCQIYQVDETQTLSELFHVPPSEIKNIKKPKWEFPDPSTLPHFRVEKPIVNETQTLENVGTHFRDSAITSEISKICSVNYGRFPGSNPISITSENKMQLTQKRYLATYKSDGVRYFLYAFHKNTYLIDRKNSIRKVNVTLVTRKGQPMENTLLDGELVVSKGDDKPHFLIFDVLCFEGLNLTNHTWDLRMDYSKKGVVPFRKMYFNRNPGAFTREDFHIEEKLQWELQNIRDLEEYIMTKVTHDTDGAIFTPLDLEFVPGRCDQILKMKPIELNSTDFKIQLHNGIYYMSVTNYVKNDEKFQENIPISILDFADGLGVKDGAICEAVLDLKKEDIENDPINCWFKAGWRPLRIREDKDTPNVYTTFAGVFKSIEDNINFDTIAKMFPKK
The experiment in a line: SDS-PAGE autoradiography of covalent enzyme-GMP intermediate; cold NTP competition. Particulars: guanylyltransferase domain; labelled compound; covalent enzyme-(lysyl-N)-GMP; 50 mM Tris-acetate pH 7.0, 5 mM DTT, 2.5 mM MgCl2, 37 °C. Type of experiment: biochemical.

`Nc1nc2c(ncn2[C@@H]2O[C@H](COP(=O)(O)OP(=O)(O)OP(=O)(O)O)[C@@H](O)[C@H]2O)c(=O)[nH]1` [[α-^32P]GTP]: the “SDS-PAGE autoradiography of covalent enzyme-GMP intermediate; cold NTP competiti” value was “displayed an absolute specificity for a GTP substrate”.
